EPA's ToxValDB 9.5

Experiments:
Mus musculus [1] = settings: oral
[2] = test system: Crangonyx richmondensis ssp. laurentianus; settings: whole body, Monoporeia affinis, parasite infection
Mus musculus [3] = settings: oral; remark: listed apart in the source
[4] = developmental, duration: 17 days, F, Developmental: Decrease in number of successful birthsbirths
[5] = short-term, duration: 3 weeks, M, BALB/c, Immunotoxicological: ~36% decrease in spleen index during recovery / ~15% inhibition in Con Ainduced T-cell proliferation during treatment…
[6] = short-term, duration: 21 days, F, B6C3F1, Immunotoxicological: Decreased host resistance to influenza virus
[7] = subchronic, duration: 3 months, M/F, C57BL/6, Neurological: Impaired spatial learning and memory
[8] = subchronic, duration: 5 weeks, M, Body Weight: 17% decrease in body weight + Reproductive: Decreases in sperm concentration, serum testosterone levels / vacuolation in …
[9] = developmental, duration: 16 days, gavage, F, B6C3F1, generation: F1, F1: spleen: spleen B220+ cells + F1: spleen: Splenic NK cell activity
[10] = developmental, duration: 16 days, gavage, M, B6C3F1, generation: F1, F1: IgM antibody titer (SRBC) + F1: thymus: thymus CD3+ cells + F1: thymus: thymus CD4+ cells
[11] = developmental, duration: 16 days, gavage, M, B6C3F1, generation: F1, F1: spleen: Splenic NK cell activity
[12] = short-term, duration: 7 days, gavage, M, BALB/c, spleen: lymphocyte proliferation (ConA)
[13] = short-term, duration: 7 days, gavage, M, BALB/c, spleen: spleen CD3+ cells (cells normalized to control)
[14] = short-term, duration: 7 days, gavage, M, C57BL/6, serum corticosterone + spleen: IFN-gamma levels + spleen: IL-2 secreting splenocytes + spleen: spleen: relative weight + thymus: thymus: …
[15] = short-term, duration: 7 days, gavage, M, C57BL/6, serum corticosterone + spleen: lymphocyte proliferation (LPS) + spleen: spleen cellularity + spleen: spleen: relative weight + spleen: …
[16] = short-term, duration: 7 days, gavage, M, C57BL/6, spleen: apoptotic splenocytes + spleen: spleen - mitochondrial membrane Rh123 fluorescence + spleen: spleen - ROS-DCF fluorescence + spleen…
[17] = short-term, duration: 7 days, gavage, M, C57BL/6, spleen: splenic DN (CD4-CD8-) cells
[18] = short-term, duration: 7 days, gavage, M, C57BL/6, spleen: splenocytes - CAT activity + spleen: splenocytes - GST activity + splenic lymphocyte protein - bax + splenic lymphocyte protein - …
[19] = short-term, duration: 10 days, diet, M, 129/SV, spleen: spleen CD19+ cells + spleen: spleen CD4+ cells + spleen: spleen CD8+ cells + spleen: spleen cellularity + spleen: spleen Pan-NK+ …
[20] = short-term, duration: 10 days, diet, M, C57BL/6, bone marrow: bone marrow cellularity + bone marrow: bone marrow: no. of CD19+ B-lymphoid cells + bone marrow: bone marrow: no. of Gr1+CD11b…
[21] = short-term, duration: 10 days, diet, M, C57BL/6, spleen: spleen CD19+ cells + spleen: spleen CD4+ cells + spleen: spleen CD8+ cells + spleen: spleen cellularity + spleen: spleen NK1.1+ …
[22] = short-term, duration: 10 days, diet, M, spleen: spleen: absolute weight + thymus: thymus CD4+ cells + thymus: thymus CD8+ cells + thymus: thymus cellularity + thymus: thymus DP (…
[23] = short-term, duration: 12 days, gavage, M, C57BL/6, body mass after exposure + spleen: spleen CD8+ cells + spleen: spleen: relative weight + thymus: thymus: relative weight
[24] = short-term, duration: 12 days, gavage, M, C57BL/6, spleen: spleen CD4+ cells + spleen: spleen cellularity

## O=S(=O)(O)C(F)(F)C(F)(F)C(F)(F)C(F)(F)C(F)(F)C(F)(F)C(F)(F)C(F)(F)F [Perfluorooctanesulfonic acid]
Mus musculus [1]; acute, duration: 1 days, M, C57BL/6, Death: LD50
  LOAEL: 579 mg/kg-day
Mus musculus [1]; developmental, duration: 1 days, M, NMRI, Developmental: Altered spontaneous behavior (?60, 87.5, or 60% changes in total activity, rearing, and locomotion)
  LOAEL: 11.3 mg/kg-day
Mus musculus [1]; developmental, duration: 17 days, CD1, Developmental: Significant increase in cholesterol levels in fetal livers
  LOAEL: 3 mg/kg-day
Mus musculus [1]; [4]
  LOAEL: 3 mg/kg-day
  NOAEL: 0.1 mg/kg-day
Mus musculus [1]; developmental, duration: 19 days, F, CD1, Developmental: In PND 63 offspring fed a high fat diet, increased serum glucose levels at ?0.3 mg/kg/day in females (~40%) and 3 mg/kg/day …
  LOAEL: 0.3 mg/kg-day
Mus musculus [1]; developmental, duration: 19 days, F, CD1, ~24% increase in relative liver weight in dams at 3 mg/kg/day + Developmental: Increase in relative liver weight at 3 mg/kg/day in male and …
  NOAEL: 3 mg/kg-day
Mus musculus [1]; reproduction developmental, duration: 6 days, F, CD1, Body Weight: 21% reduction in maternal body weight gain on GDs 14-17
  LOAEL: 8 mg/kg-day
Mus musculus [1]; reproduction developmental, duration: 17 days, CD1, Hepatic: No alteration in maternal hepatic lipid levels
  NOAEL: 3 mg/kg-day
Mus musculus [1]; short-term, duration: 3 weeks, M, BALB/c, Body Weight: ~15% reduction in body weight during the recovery period
  LOAEL: 10 mg/kg-day
Mus musculus [1]; [5]
  LOAEL: 5 mg/kg-day
  NOAEL: 2.5 mg/kg-day
Mus musculus [1]; short-term, duration: 7 days, F, BALB/c, Body Weight: 41% decreased body weight gain + Immunotoxicological: Inhibition of T lymphocyte proliferation in response to sRBC / decreased…
  LOAEL: 20 mg/kg-day
Mus musculus [1]; short-term, duration: 7 days, F, BALB/c, Hepatic: 59% increase in relative liver weight
  NOAEL: 20 mg/kg-day
Mus musculus [1]; short-term, duration: 7 days, M, Immunotoxicological: Impaired response to T-cell mitogens / suppressed response to sRBC
  LOAEL: 5 mg/kg-day
Mus musculus [1]; short-term, duration: 10 days, M, C57BL/6, Hepatic: 41% increase in liver weight, hepatocellular hypertrophy, and decreased serum cholesterol levels
  NOAEL: 6 mg/kg-day
Mus musculus [1]; [6]
  LOAEL: 0.025 mg/kg-day
  NOAEL: 0.005 mg/kg-day
Mus musculus [1]; short-term, duration: 28 days, M, B6C3F1, Body Weight: 21% reduction in body weight
  LOAEL: 0.2 mg/kg-day
Mus musculus [1]; short-term, duration: 28 days, M, B6C3F1, Immunotoxicological: No alterations in thymic lymphocyte phenotypes, response to sRBC, or IgM antibodies to LPS
  NOAEL: 0.2 mg/kg-day
Mus musculus [1]; [7]
  LOAEL: 2.15 mg/kg-day
  NOAEL: 0.43 mg/kg-day
Mus musculus [1]; [8]
  LOAEL: 10 mg/kg-day
  NOAEL: 0.5 mg/kg-day
Mus musculus [1]; subchronic, duration: 6 weeks, M, Hepatic: Decreased plasma triglyceride, total cholesterol, non-HDL cholesterol, and HDL cholesterol levels / increased hepatic triglyceride…
  NOAEL: 3 mg/kg-day
Mus musculus [1]; subchronic, duration: 30 days, M, C57BL/6
  NOAEL: 10 mg/kg-day
Mus musculus [1]; subchronic, duration: 30 days, M, C57BL/6, Body Weight: 31% reduction in body weight (correlated with 68% reduction in feed consumption)
  LOAEL: 10 mg/kg-day
Mus musculus [1]; subchronic, duration: 30 days, M, C57BL/6, Hepatic: Increased liver weight (35%) and serum AST(~12%) and GGT levels (~98%) at ?[…] / increases in ALT (~45%) and ALP (~36%) at ?5 mg/…
  LOAEL: 2.5 mg/kg-day
[2]; short-term, duration: 22 day, M/F
  NOEL: 0.2 mg/L
[2]; subchronic, duration: 5 week, F
  LOEL: 0.01 mg/L
Mus musculus [3]; developmental, duration: 16 days, gavage, F, B6C3F1, generation: F1, F1: body weight (4 weeks of age) + F1: body weight (8 weeks of age) + F1: IgM antibody titer (SRBC) + F1: spleen: spleen CD3+ cells + F1: …
  NOEL: 5 mg/kg-day
Mus musculus [3]; [9]
  LOEL: 5 mg/kg-day
  NOEL: 1 mg/kg-day
Mus musculus [3]; [10]
  LOEL: 5 mg/kg-day
  NOEL: 1 mg/kg-day
Mus musculus [3]; developmental, duration: 16 days, gavage, M, B6C3F1, generation: F1, F1: body weight (4 weeks of age) + F1: body weight (8 weeks of age) + F1: spleen: spleen B220+ cells + F1: spleen: spleen CD3+ cells + F1: …
  NOEL: 5 mg/kg-day
Mus musculus [3]; [11]
  LOEL: 1 mg/kg-day
  NOEL: 0.1 mg/kg-day
Mus musculus [3]; reproduction developmental, diet, M/F, BALB/c, generation: F1, F1: airway MCh sensitivity + F1: airway resistance (at 25 mg/mL methacholine) + F1: lung: BALF inflammatory cell counts: eosinophils + F1: …
  NOEL: 4 ppm
Mus musculus [3]; reproduction developmental, diet, M/F, BALB/c, generation: F1, F1: airway MCh sensitivity + F1: lung: BALF inflammatory cell counts: macrophages + F1: lung: BALF inflammatory cell counts: total cell …
  LOEL: 4 ppm
Mus musculus [3]; short-term, duration: 3 weeks, gavage, F, BALB/c, IgM antibody level (TNP 1:200) + IgM antibody level (TNP 1:50)
  NOEL: 20 mg/kg-day
Mus musculus [3]; short-term, duration: 7 days, gavage, F, BALB/c, Peripheral blood phagocytosis (HEMA) + spleen: lymphocyte proliferation (ConA) + spleen: spleen cellularity + spleen: Splenic NK cell …
  LOEL: 20 mg/kg-day
Mus musculus [3]; short-term, duration: 7 days, gavage, F, BALB/c, spleen: lymphocyte proliferation (LPS) + spleen: spleen CD4+ cells + spleen: spleen CD49b+ cells + spleen: spleen CD8+ cells + spleen: …
  NOEL: 20 mg/kg-day
Mus musculus [3]; [12]
  LOEL: 10 mg/kg-day
  NOEL: 5 mg/kg-day
Mus musculus [3]; [13]
  LOEL: 5 mg/kg-day
  NOEL: 2.5 mg/kg-day
Mus musculus [3]; short-term, duration: 7 days, gavage, M, BALB/c, spleen: spleen CD3+ cells + spleen: spleen CD3+CD4+ cells + spleen: spleen CD3+CD4+ cells (cells normalized to control) + spleen: spleen CD3…
  NOEL: 10 mg/kg-day
Mus musculus [3]; short-term, duration: 7 days, gavage, M, C57BL/6, IgM antibody-secreting cells (SRBC) + spleen: lymphocyte proliferation (ConA)
  LOEL: 5 mg/kg-day
Mus musculus [3]; [14]
  LOEL: 20 mg/kg-day
  NOEL: 5 mg/kg-day
Mus musculus [3]; [15]
  LOEL: 20 mg/kg-day
  NOEL: 5 mg/kg-day
Mus musculus [3]; short-term, duration: 7 days, gavage, M, C57BL/6, spleen: IL-4 levels + Total serum IgG level + Total serum IgM level
  LOEL: 5 mg/kg-day
Mus musculus [3]; short-term, duration: 7 days, gavage, M, C57BL/6, spleen: IL-10 secreting splenocytes
  NOEL: 20 mg/kg-day
Mus musculus [3]; [16]
  LOEL: 5 mg/kg-day
  NOEL: 1 mg/kg-day
Mus musculus [3]; short-term, duration: 7 days, gavage, M, C57BL/6, spleen: spleen: relative weight + thymus: thymus: relative weight
  NOEL: 10 mg/kg-day
Mus musculus [3]; [17]
  LOEL: 40 mg/kg-day
  NOEL: 20 mg/kg-day
Mus musculus [3]; short-term, duration: 7 days, gavage, M, C57BL/6, spleen: splenic DP (CD4+CD8+) cells
  NOEL: 40 mg/kg-day
Mus musculus [3]; [18]
  LOEL: 10 mg/kg-day
  NOEL: 5 mg/kg-day
Mus musculus [3]; [19]
  LOEL: 0.02%
  NOEL: 0.005%
Mus musculus [3]; short-term, duration: 10 days, diet, M, C57BL/6, blood serum: IL-6 levels (+LPS in vivo) + blood serum: TNF-alpha levels + blood serum: TNF-alpha levels (+LPS in vivo) + bone marrow: IL-6 …
  NOEL: 0.02%
Mus musculus [3]; short-term, duration: 10 days, diet, M, C57BL/6, blood serum: IL-6 levels + bone marrow: IL-6 levels (+ LPS in vitro) + bone marrow: IL-6 levels (+ LPS in vivo) + bone marrow: percent …
  LOEL: 0.02%
Mus musculus [3]; [20]
  LOEL: 0.02%
  NOEL: 0.002%
Mus musculus [3]; short-term, duration: 10 days, diet, M, C57BL/6, bone marrow: bone marrow: no. of early mature CD19+CD138-IgM+ B cells
  NOEL: 0.02%
Mus musculus [3]; short-term, duration: 10 days, diet, M, C57BL/6, intrahepatic immune cells: TER119 (erythroid progenitor) + liver: IFN-gamma levels + liver: IL-4 levels + liver: TNF-alpha levels
  LOEL: 0.005%
Mus musculus [3]; short-term, duration: 10 days, diet, M, C57BL/6, intrahepatic immune cells: all leukocytes (CD45+) + intrahepatic immune cells: B cells (CD19+) + intrahepatic immune cells: CD138 (plasma …
  NOEL: 0.005%
Mus musculus [3]; short-term, duration: 10 days, diet, M, C57BL/6, liver: IFN-gamma levels + liver: IFN-gamma levels (+Con A) + liver: IL-4 levels + liver: IL-4 levels (+Con A) + liver: TNF-alpha levels + …
  LOEL: 0.004%
Mus musculus [3]; [21]
  LOEL: 0.02%
  NOEL: 0.005%
Mus musculus [3]; short-term, duration: 10 days, diet, M, spleen: spleen CD19+ cells + spleen: spleen CD4+ cells + spleen: spleen CD8+ cells + spleen: spleen cellularity + spleen: spleen Pan-NK+ …
  NOEL: 0.02%
Mus musculus [3]; [22]
  LOEL: 0.02%
  NOEL: 0.005%
Mus musculus [3]; [23]
  LOEL: 10 mg/kg-day
  NOEL: 5 mg/kg-day
Mus musculus [3]; [24]
  LOEL: 20 mg/kg-day
  NOEL: 10 mg/kg-day
Mus musculus [3]; short-term, duration: 14 days, gavage, F, BALB/c, spleen: spleen: relative weight + thymus: percentage of apoptotic cells in thymus + thymus: thymus: relative weight
  LOEL: 20 mg/kg-day
